In patent US4540692A, “Anti-inflammatory N-(1-oxo-2,4,6-cycloheptatrienyl)2H-1,2-benzothiazine-3-carboxamide 1,1-dioxide derivatives, compositions, and method of use” (Fujisawa Pharmaceutical Co., Ltd., priority 1983, dated 1985):

Tested on: carrageenin edema
Experiment: Carrageenin edema test
Format: in vivo, Sprague-Dawley rats
Conditions: rat hind paw, 10 mg/kg oral, 60 minutes prior to carrageenin (0.1 ml, 1%); edema weight 3 hours after injection
Procedure: Five Sprague-Dawley rats were fasted for 24 hours and submitted to the study. First, 0.1 ml of carrageenin (1%) was subcutaneously injected into the paw of the right hind limb and after 3 hours the rat was sacrificed. The untreated limb and the edematous limb were respectively incised off at the junction of the tibia and weighed. The difference in weight between the edematous limb and the untreated limb was taken as the weight of the edema.
The test compound was orally administered 60 minutes prior to the administration of carrageenin and the swelling in the treated limb was compared with that in the control limb. The test compound was administered in a dose of 10 mg/kg.

Structure (SMILES): CN1C(C(=O)Nc2cccccc2=O)=C(O)c2ccccc2S1(=O)=O [Example 1, 4-hydroxy-2-methyl-N-(1-oxo-2,4,6-cycloheptatrien-2-yl)-2H-1,2-benzothiazine-3-carboxamide 1,1-dioxide]
- % Inhibition of carrageenin edema: 51.4%
